Laboratory results reported in patent publication US20060009478A1, “Methods for the treatment of back pain” (priority 2003, published 2006).

Legend:
[1] = test system: patients with moderate to severe chronic pain due to osteoarthritis of the hip or knee; test: Global assessment of study medication, 3-week osteoarthritis study; type: in vivo, human
Method: Global Assessment of Study Medication was also assessed weekly at clinic visits. The patient was prompted with the question, “How would you rate the study medication you received this past week? (Please consider the quality of your pain relief, your side effects, your activity level, your mood and sense of well-being, etc. in this evaluation.)”. Responses were selected from poor, fair, good, very good, and excellent.
The global assessment, quality of analgesia, and pain control, recorded at the end of each week, were summarized in terms of category proportions.
For secondary analysis of data, pain intensity changes, SF-12, and WOMAC were analyzed with the ANOVA methods as described above. Within treatment arms, weeks were compared in pairwise fashion using paired-sample methods. The global assessments, quality of analgesia ratings, and pain control was analyzed at each week, globally and in pairwise fashion, using the Cocharan-Mantel-Haenszel row mean scores (CMH-RMS) test, using equally spaced scores. An “observed data” analysis, without any data imputation, was conducted on pain intensity changes, global assessments, quality of analgesia ratings, pain control, SF-12, and WOMAC using the same analysis methods described previously.

[2] = test system: patients with moderate to severe chronic low back pain; test: Short Opiate Withdrawal Scale (SOWS), low back pain study; settings: ITT
[3] = ITT (N = 102 per active group), LOCF
[4] = all patients, change from baseline to day 1
[5] = all patients, change from baseline to day 2
[6] = all patients, change from baseline to day 3
[7] = all patients, change from baseline to day 4
[8] = all patients, last dose date (baseline)
[9] = all patients, opioid withdrawal monitoring day 1
[10] = all patients, opioid withdrawal monitoring day 2
[11] = all patients, opioid withdrawal monitoring day 3
[12] = all patients, opioid withdrawal monitoring day 4
[13] = patients with <4 weeks of dosing, change from baseline to day 1
[14] = patients with <4 weeks of dosing, change from baseline to day 2
[15] = patients with <4 weeks of dosing, change from baseline to day 3

COc1ccc2c3c1O[C@H]1C(=O)CC[C@@]4(O)[C@@H](C2)N(C)CC[C@]314 [OXY QID, oxycodone]
Global assessment Week 1: EXCELLENT (4), number (%) of patients [1, 3]: 3 (2.9%)
Global assessment Week 1: FAIR (1), number (%) of patients [1, 3]: 37 (36.3%)
Global assessment Week 1: GOOD (2), number (%) of patients [1, 3]: 30 (29.4%)
Global assessment Week 1: POOR (0), number (%) of patients [1, 3]: 16 (15.7%)
Global assessment Week 1: VERY GOOD (3), number (%) of patients [1, 3]: 12 (11.8%)
Global assessment Week 2: EXCELLENT (4), number (%) of patients [1, 3]: 6 (5.9%)
Global assessment Week 2: FAIR (1), number (%) of patients [1, 3]: 29 (28.4%)
Global assessment Week 2: POOR (0), number (%) of patients [1, 3]: 16 (15.7%)
Global assessment Week 3: EXCELLENT (4), number (%) of patients [1, 3]: 6 (5.9%)
Global assessment Week 3: FAIR (1), number (%) of patients [1, 3]: 18 (17.6%)
Global assessment Week 3: GOOD (2), number (%) of patients [1, 3]: 36 (35.3%)
Global assessment Week 3: POOR (0), number (%) of patients [1, 3]: 24 (23.5%)
Global assessment Week 3: VERY GOOD (3), number (%) of patients [1, 3]: 14 (13.7%)
Patients reporting a global assessment of very good or excellent at Week 3 ([1]; Week 3): 19.6%
SOWS change from baseline, MAX [2, 4]: 1.9
SOWS change from baseline, MEAN(SD) [2, 4]: 0.3 (0.47)
SOWS change from baseline, MEDIAN [2, 4]: 0.2
SOWS change from baseline, MIN [2, 4]: −0.7
SOWS change from baseline, MAX [2, 5]: 2.4
SOWS change from baseline, MEAN(SD) [2, 5]: 0.3 (0.53)
SOWS change from baseline, MEDIAN [2, 5]: 0.2
SOWS change from baseline, MIN [2, 5]: −1.1
SOWS change from baseline, MAX [2, 6]: 1.7
SOWS change from baseline, MEAN(SD) [2, 6]: 0.2 (0.48)
SOWS change from baseline, MEDIAN [2, 6]: 0.2
SOWS change from baseline, MIN [2, 6]: −1.1
SOWS change from baseline, MAX [2, 7]: 2.7
SOWS change from baseline, MEAN(SD) [2, 7]: 0.2 (0.54)
SOWS change from baseline, MEDIAN [2, 7]: 0.1
SOWS change from baseline, MIN [2, 7]: −1.1
SOWS score, MAX [2, 8]: 1.5
SOWS score, MEAN(SD) [2, 8]: 0.3 (0.36)
SOWS score, MEDIAN [2, 8]: 0.2
SOWS score, MIN [2, 8]: 0.0
SOWS score, MAX [2, 9]: 2.5
SOWS score, MEAN(SD) [2, 9]: 0.5 (0.52)
SOWS score, MEDIAN [2, 9]: 0.4
SOWS score, MIN [2, 9]: 0.0
SOWS score, MAX [2, 10]: 2.5
SOWS score, MEAN(SD) [2, 10]: 0.5 (0.54)
SOWS score, MEDIAN [2, 10]: 0.4
SOWS score, MIN [2, 10]: 0.0
SOWS score, MAX [2, 11]: 2.2
SOWS score, MEAN(SD) [2, 11]: 0.5 (0.53)
SOWS score, MEDIAN [2, 11]: 0.4
SOWS score, MIN [2, 11]: 0.0
SOWS score, MAX [2, 12]: 2.7
SOWS score, MEAN(SD) [2, 12]: 0.4 (0.54)
SOWS score, MEDIAN [2, 12]: 0.3
SOWS score, MIN [2, 12]: 0.0
SOWS change from baseline, MAX [2, 13]: 0.2
SOWS change from baseline, MEAN(SD) [2, 13]: 0.0 (0.16)
SOWS change from baseline, MEDIAN [2, 13]: 0.0
SOWS change from baseline, MIN [2, 13]: −0.2
SOWS change from baseline, MAX [2, 14]: 1.3
SOWS change from baseline, MEAN(SD) [2, 14]: 0.2 (0.66)
SOWS change from baseline, MEDIAN [2, 14]: 0.1
SOWS change from baseline, MIN [2, 14]: −0.5
SOWS change from baseline, MAX [2, 15]: 1.3
SOWS change from baseline, MEAN(SD) [2, 15]: 0.2 (0.67)
SOWS change from baseline, MEDIAN [2, 15]: 0.0
